Test results taken from US9944602B2, “Piperidinone herbicides” (E. I. DU PONT DE NEMOURS AND COMPANY, priority 2014, dated 2018).

Columns and labels:
Type in all cases: in vivo
[1] = system: barnyardgrass (Echinochloa crus-galli); assay: Test A preemergence barnyardgrass; conditions: 0 to 100 scale, 0 no effect, 100 complete control
In short: (§1)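 Greenhouse pot test: chemicals formulated with surfactant in non-phytotoxic solvent, sprayed on soil at seeding (pre) or on 1–2 leaf seedlings of 2–10 cm (post). Rating ~10 d later, visual, 0 = no effect to 100 = complete control, relative to untreated controls.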

kochia (Kochia scoparia) [2] = assay: Test A preemergence kochia; conditions: 0 to 100 scale, 0 no effect, 100 complete control
In short: as §1

[3] = system: ragweed (common ragweed, Ambrosia elatior); assay: Test A preemergence ragweed; conditions: 0 to 100 scale, 0 no effect, 100 complete control
In short: as §1

[4] = system: ryegrass, Italian (Italian ryegrass, Lolium multiflorum); assay: Test A preemergence ryegrass, Italian; conditions: 0 to 100 scale, 0 no effect, 100 complete control
In short: as §1

[5] = system: foxtail, giant (giant foxtail, Setaria faberii); assay: Test A preemergence foxtail, giant; conditions: 0 to 100 scale, 0 no effect, 100 complete control
In short: as §1

[6] = system: pigweed (Amaranthus retroflexus); assay: Test A preemergence pigweed; conditions: 0 to 100 scale, 0 no effect, 100 complete control
In short: as §1

[7] = system: barnyardgrass (Echinochloa crus-galli); assay: Test A postemergence barnyardgrass; conditions: 0 to 100 scale, 0 is no effect, 100 is complete control
In short: as §1

kochia (Kochia scoparia) [8] = assay: Test A postemergence kochia; conditions: 0 to 100 scale, 0 is no effect, 100 is complete control
In short: as §1

[9] = system: ragweed (common ragweed, Ambrosia elatior); assay: Test A postemergence ragweed; conditions: 0 to 100 scale, 0 is no effect, 100 is complete control
In short: as §1

[10] = system: ryegrass, Italian (Italian ryegrass, Lolium multiflorum); assay: Test A postemergence ryegrass, Italian; conditions: 0 to 100 scale, 0 is no effect, 100 is complete control
In short: as §1

[11] = system: foxtail, giant (giant foxtail, Setaria faberii); assay: Test A postemergence foxtail, giant; conditions: 0 to 100 scale, 0 is no effect, 100 is complete control
In short: as §1

[12] = system: pigweed (Amaranthus retroflexus); assay: Test A postemergence pigweed; conditions: 0 to 100 scale, 0 is no effect, 100 is complete control
In short: as §1

[13] = system: wheat (Triticum aestivum); assay: Test A postemergence wheat; conditions: 0 to 100 scale, 0 is no effect, 100 is complete control
In short: as §1

corn (Zea mays) = assay: Test A postemergence corn; conditions: 0 to 100 scale, 0 is no effect, 100 is complete control
In short: as §1

[14] = system: blackgrass (Alopecurus myosuroides); assay: Test A postemergence blackgrass; conditions: 0 to 100 scale, 0 is no effect, 100 is complete control
In short: as §1

[15] = system: galium (catchweed bedstraw, Galium aparine); assay: Test A postemergence galium; conditions: 0 to 100 scale, 0 is no effect, 100 is complete control
In short: as §1

rice (Oryza sativa) = assay: Test B flooded paddy test rice; conditions: Table B, Flood, 250 g ai/ha, scale 0 to 100
In short: (§2)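 Visual injury relative to controls was scored after 13 to 15 d in the greenhouse. Treatment was by adding compound straight to flood water 3 cm deep, maintained for the whole test, on plants at the 2-leaf stage.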

[16] = system: sedge, umbrella (small-flower umbrella sedge, Cyperus difformis); assay: Test B flooded paddy test sedge, umbrella; conditions: Table B, Flood, 250 g ai/ha, scale 0 to 100
In short: as §2

[17] = system: ducksalad (Heteranthera limosa); assay: Test B flooded paddy test ducksalad; conditions: Table B, Flood, 250 g ai/ha, scale 0 to 100
In short: as §2

[18] = system: barnyardgrass (Echinochloa crus-galli); assay: Test B flooded paddy test barnyardgrass; conditions: Table B, Flood, 250 g ai/ha, scale 0 to 100
In short: as §2

Which results are given for `O=C1NCCC(c2cccc(C(F)F)c2)C1C(=O)Nc1ccc(F)c(F)c1F` (stereo not drawn) [Compound 47]?
Barnyardgrass plant response rating ([1]; 125 g ai/ha): 70; Barnyardgrass plant response rating ([1]; 500 g ai/ha): 90; Kochia plant response rating (kochia (Kochia scoparia) [2]; 125 g ai/ha): 0; Kochia plant response rating (kochia (Kochia scoparia) [2]; 500 g ai/ha): 0; Ragweed plant response rating ([3]; 125 g ai/ha): 0; Ragweed plant response rating ([3]; 500 g ai/ha): 0; Ryegrass, Italian plant response rating ([4]; 125 g ai/ha): 0; Ryegrass, Italian plant response rating ([4]; 500 g ai/ha): 40; Foxtail, Giant plant response rating ([5]; 125 g ai/ha): 80; Foxtail, Giant plant response rating ([5]; 500 g ai/ha): 90; Pigweed plant response rating ([6]; 125 g ai/ha): 0; Pigweed plant response rating ([6]; 500 g ai/ha): 0; Plant response rating, Barnyardgrass ([7]; 125 g ai/ha): 50; Plant response rating, Barnyardgrass ([7]; 500 g ai/ha): 90; Plant response rating, Kochia (kochia (Kochia scoparia) [8]; 125 g ai/ha): 0; Plant response rating, Kochia (kochia (Kochia scoparia) [8]; 500 g ai/ha): 0; Plant response rating, Ragweed ([9]; 125 g ai/ha): 0; Plant response rating, Ragweed ([9]; 500 g ai/ha): 0; Plant response rating, Ryegrass, Italian ([10]; 125 g ai/ha): 0; Plant response rating, Ryegrass, Italian ([10]; 500 g ai/ha): 20; Plant response rating, Foxtail, Giant ([11]; 125 g ai/ha): 70; Plant response rating, Foxtail, Giant ([11]; 500 g ai/ha): 80; Plant response rating, Pigweed ([12]; 125 g ai/ha): 0; Plant response rating, Pigweed ([12]; 500 g ai/ha): 0; Plant response rating, Wheat ([13]; 125 g ai/ha): 0; Plant response rating, Wheat ([13]; 500 g ai/ha): 30; Plant response rating, Corn (corn (Zea mays); 125 g ai/ha): 0; Plant response rating, Corn (corn (Zea mays); 500 g ai/ha): 0; Plant response rating, Blackgrass ([14]; 125 g ai/ha): 0; Plant response rating, Blackgrass ([14]; 500 g ai/ha): 0; Plant response rating, Galium ([15]; 125 g ai/ha): 0; Plant response rating, Galium ([15]; 500 g ai/ha): 0; Plant response rating (rice (Oryza sativa)): 0; Plant response rating [16]: 0; Plant response rating [17]: 50; Plant response rating [18]: 0

How did the “Barnyardgrass plant response rating” value ([1]; 125 g ai/ha) turn out when `O=C1NCCC(c2cccc(C(F)F)c2)C1C(=O)Nc1ccccc1F` (stereo not drawn) [Compound 48] was run?
Its value is 40.

What about the “Barnyardgrass plant response rating” value ([1]; 500 g ai/ha) of the same compound?
Its value is 90.

What about the “Kochia plant response rating” value (kochia (Kochia scoparia) [2]; 125 g ai/ha) of the same compound?
Its value is 0.

And the “Kochia plant response rating” value (kochia (Kochia scoparia) [2]; 500 g ai/ha)?
Its value is 0.

What about the “Ragweed plant response rating” value ([3]; 125 g ai/ha) of the same compound?
The value was 0.

What about the “Ragweed plant response rating” value ([3]; 500 g ai/ha) of the same compound?
The value was 0.

And the “Ryegrass, Italian plant response rating” value ([4]; 125 g ai/ha)?
Its value is 0.

And the “Ryegrass, Italian plant response rating” value ([4]; 500 g ai/ha)?
The value was 0.

And the “Foxtail, Giant plant response rating” value ([5]; 125 g ai/ha)?
Its value is 70.

What about the “Foxtail, Giant plant response rating” value ([5]; 500 g ai/ha) of the same compound?
The value was 90.

What about the “Pigweed plant response rating” value ([6]; 125 g ai/ha) of the same compound?
The value was 0.

What about the “Pigweed plant response rating” value ([6]; 500 g ai/ha) of the same compound?
Its value is 0.

What about the “Plant response rating, Barnyardgrass” value ([7]; 125 g ai/ha) of the same compound?
The value was 30.

What about the “Plant response rating, Barnyardgrass” value ([7]; 500 g ai/ha) of the same compound?
The value was 80.

And the “Plant response rating, Kochia” value (kochia (Kochia scoparia) [8]; 125 g ai/ha)?
The value was 0.

What about the “Plant response rating, Kochia” value (kochia (Kochia scoparia) [8]; 500 g ai/ha) of the same compound?
The value was 0.

And the “Plant response rating, Ragweed” value ([9]; 125 g ai/ha)?
The value was 0.

What about the “Plant response rating, Ragweed” value ([9]; 500 g ai/ha) of the same compound?
The value was 0.

And the “Plant response rating, Ryegrass, Italian” value ([10]; 125 g ai/ha)?
The value was 0.

What about the “Plant response rating, Ryegrass, Italian” value ([10]; 500 g ai/ha) of the same compound?
Its value is 0.

What about the “Plant response rating, Foxtail, Giant” value ([11]; 125 g ai/ha) of the same compound?
Its value is 0.

What about the “Plant response rating, Foxtail, Giant” value ([11]; 500 g ai/ha) of the same compound?
The value was 30.

What about the “Plant response rating, Pigweed” value ([12]; 125 g ai/ha) of the same compound?
The value was 0.

And the “Plant response rating, Pigweed” value ([12]; 500 g ai/ha)?
The value was 0.

What about the “Plant response rating, Wheat” value ([13]; 125 g ai/ha) of the same compound?
Its value is 0.

What about the “Plant response rating, Wheat” value ([13]; 500 g ai/ha) of the same compound?
Its value is 0.

And the “Plant response rating, Corn” value (corn (Zea mays); 125 g ai/ha)?
Its value is 0.

And the “Plant response rating, Corn” value (corn (Zea mays); 500 g ai/ha)?
The value was 0.

What about the “Plant response rating, Blackgrass” value ([14]; 125 g ai/ha) of the same compound?
The value was 0.

And the “Plant response rating, Blackgrass” value ([14]; 500 g ai/ha)?
The value was 0.

And the “Plant response rating, Galium” value ([15]; 125 g ai/ha)?
The value was 0.

What about the “Plant response rating, Galium” value ([15]; 500 g ai/ha) of the same compound?
Its value is 0.

And the Plant response rating (rice (Oryza sativa))?
The Plant response rating was 15.

And the Plant response rating [16]?
Its Plant response rating is 0.

What about the Plant response rating [17] of the same compound?
Its Plant response rating is 60.

What about the Plant response rating [18] of the same compound?
The Plant response rating was 20.
